The nature of data set [1]: Ratio of kinetic constants (kcat/km) for the inhibition against carboxypeptidase B.
In data set [2] the target is T1, Carboxypeptidase B (Sus scrofa) (UniProt P09955).
T1 sequence (whole entry): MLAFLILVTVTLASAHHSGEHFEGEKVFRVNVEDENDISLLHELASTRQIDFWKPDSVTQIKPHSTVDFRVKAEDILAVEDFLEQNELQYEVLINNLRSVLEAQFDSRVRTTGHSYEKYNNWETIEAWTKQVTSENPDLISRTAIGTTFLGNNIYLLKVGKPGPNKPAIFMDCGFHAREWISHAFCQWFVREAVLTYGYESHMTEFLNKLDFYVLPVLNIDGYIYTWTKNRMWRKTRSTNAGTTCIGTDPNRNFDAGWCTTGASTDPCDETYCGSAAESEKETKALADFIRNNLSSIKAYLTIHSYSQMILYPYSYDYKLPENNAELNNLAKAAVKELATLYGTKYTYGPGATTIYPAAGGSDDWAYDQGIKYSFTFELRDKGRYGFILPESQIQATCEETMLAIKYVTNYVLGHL
In words: Substrate kinetic value (kcat) against porcine carboxypeptidase B.

Substrate in data set [3]: COc1ccc(/N=N/C(=O)NC(CCCCN)C(=O)O)cc1
As to the kind of experiment: (§1) Affinity to porcine carboxypeptidase B at pH 7.9.

Substrate in data set [4]: C[C@@H](NC(=O)/C=C/c1ccco1)C(=O)N[C@@H](CCCCN)C(=O)O
Described as §1.

Regarding `C[C@@H](NC(=O)/C=C/c1ccco1)C(=O)N[C@@H](CCCCN)C(=O)O`, in data set [1], the Ratio is 36000 M⁻¹ s⁻¹.
`COc1ccc(/N=N/C(=O)NC(CCCCN)C(=O)O)cc1` (stereo not given) returned a k cat in data set [2] of 76 s⁻¹. Also, the Ratio in data set [1] was found to be 95000 M⁻¹ s⁻¹.

B1: Carboxypeptidase B (Sus scrofa), P09955 (protein)
chain: MLAFLILVTVTLASAHHSGEHFEGEKVFRVNVEDENDISLLHELASTRQIDFWKPDSVTQIKPHSTVDFRVKAEDILAVEDFLEQNELQYEVLINNLRSVLEAQFDSRVRTTGHSYEKYNNWETIEAWTKQVTSENPDLISRTAIGTTFLGNNIYLLKVGKPGPNKPAIFMDCGFHAREWISHAFCQWFVREAVLTYGYESHMTEFLNKLDFYVLPVLNIDGYIYTWTKNRMWRKTRSTNAGTTCIGTDPNRNFDAGWCTTGASTDPCDETYCGSAAESEKETKALADFIRNNLSSIKAYLTIHSYSQMILYPYSYDYKLPENNAELNNLAKAAVKELATLYGTKYTYGPGATTIYPAAGGSDDWAYDQGIKYSFTFELRDKGRYGFILPESQIQATCEETMLAIKYVTNYVLGHL
With B1, the Km turned out to be 810 µM in data set [3] and 1160 µM in data set [4].

Broadly, the Km is the concentration of substrate that gives half-maximal velocity.

(Values after ChEMBL document CHEMBL1132016, “Catalytic activity of carboxypeptidase B and of carboxypeptidase Y with anisylazoformyl substrates” (Bioorg Med Chem Lett, 1999).)
